Experimental data taken from patent US6780821B1, “Substituted phenyl uracils” (Bayer Aktiengesellschaft, priority 1998, dated 2004).

| melting point [°C] | SMILES |
| --- | --- |
| 84 | COc1ccc(Oc2cc(-n3c(=O)cc(C(F)(F)F)[nH]c3=O)c(F)cc2C#N)cc1 [Example 1, 4-(3,6-dihydro-2,6-dioxo-4-trifluoromethyl-1(2H)-pyrimidin-1-yl)-5-fluoro-2-(4-methoxy-phenoxy)-benzonitrile] |
| 62 | COc1ccc(Oc2cc(-n3c(=O)cc(C(F)(F)F)n(C)c3=O)c(F)cc2C#N)cc1 [Example 2, 4-(3,6-dihydro-2,6-dioxo-3-methyl-4-trifluoromethyl-1(2H)-pyrimidin-1-yl)-5-fluoro-2-(4-methoxy-phenoxy)-benzonitrile] |
